Test results taken from patent publication US9670462B2, “Bioactive surface for hepatocyte-based applications” (priority 2006, dated 2017).

Tested on: hepatocytes

## N=C(N)NCCC[C@H](NC(=O)CN)C(=O)NCC(=O)N[C@@H](CC(=O)O)C(=O)N[C@@H](CO)C(=O)O [GRGDS]
Soluble peptide 100 μM in culture medium
  effect on hepatocyte monolayer maintained on PET-Hybrid: destabilized the hepatocyte monolayer
Soluble peptide, treatment for 24 h
  toxicity to the hepatocytes: slight toxicity

## NCCCCCCOC1O[C@H](CO)[C@H](O)[C@H](O)[C@H]1O (stereo partly drawn) [galactose ligands, 1-O-(6′-aminohexyl)-D-galactopyranoside]
  morphological changes of 3D spheroids, pre-spheroid monolayer or 2D hepatocyte monolayer: did not induce any morphological changes
